Test results: US6274334A, “Monoclonal antibody, cell line and immunoassay for ractopamine” (The United States of America as represented by the …, priority 2000, dated 2001)
“And” between values parts separate entries of the source, which are not always exact repeats. Identical values can stand only once. Counter-ions that a name gives are not always drawn.

Assays:
[1] = system: antibody produced by hybridoma 5G10; experiment: Competitive indirect ELISA for specificity of the 5G10 antibody (buffer); type: binding, mouse; conditions: for IC50: means of three separate experiments on three different days, racemic ractopamine average of 15 experiments; for Cross-reactivity: ratio of IC50 for racemic ractopamine to that of test compound times 100; for competition curve: competitors up to 10,000 ng/mL; for poorer ligand relative to (1R,3R) stereoisomer of ractopamine: relative to (1R,3R) ractopamine
Procedure: The supernatant culture fluid from the cloned hybridomas may also be screened to select for those producing antibodies having a high affinity for ractopamine. Affinity may be measured using a variety of well known techniques, such as ELISA, RIA or equilibrium dialysis using labelled ractopamine. Competitive indirect ELISA (CI-ELISA) is preferred, and is conducted at a final antibody concentration (dilution from tissue culture supernatant) to give 50% of maximal binding to a ractopamine coated substrate or assay well. In accordance with this embodiment, the antibody containing supernatant is added to a ractopamine conjugate-coated solid substrate such as the wells of an assay plate, together with a range of concentrations of free ractopamine as a competitor. Following incubation and washing, bound antibody in the wells is determined in the same manner as the indirect-ELISA. Percent inhibition may be calculated as (1-B/B0)×100 where B is the optical density (OD) of a well with a competitor and B0 is the mean OD of the wells without competitor (control). […] However, for even greater accuracy, the affinity may be alternatively measured at 50% inhibition (IC50).
(§1) The checkerboard method was used to determine the optimum amount of coating antigen-ractopamine-glutarate-BSA (0.1 to 1 μg/well), primary antibody (1:4000 to 1:14,000), and secondary antibody (1:5000 to 1:50,000) required for the indirect competition ELISA. […] Ninety-six well flat bottom ELISA plates were coated with 500 ng/well of ractopamine-glutarate-BSA in 50 mM bicarbonate buffer, pH 9.6, and allowed to shake for 2 hours using an orbital shaker after which the plates were washed 5 times with PBST. Excess binding sites in each well were blocked by incubating with a 1% solution of Teleostean® cold water fish gelatin for 1 hour after which each well was washed 5 times with PBST. Primary antibody (5G10), diluted to 1:14,000, was added (50 μL/well) in the presence of competitor (100 μL/well) and was incubated for 1.5 hours. Competitors were incubated at concentrations of 0, 0.1, 0.5, 1, 5, 10, 50, 100, 500, 1000, 5000, and 10,000 ng/mL. A racemic ractopamine calibration curve was used in every experiment as a quality control. Washing wells five times with PBST terminated the reactions. Goat anti-mouse IgG peroxidase conjugate, diluted 1:50,000 (100 μL/well), was incubated for 1 hour. A TMB substrate solution was used during color development (30 min); the color development was stopped by adding 50 μL/well of 2 N H2 SO4. All incubations were conducted at 37° C. The plates were read at 450 nm and the data analyzed using a four-parameter logistic equation for the competitors that produced competition curves.

[2] = system: ractopamine antibody; experiment: Immunoaffinity column retention; type: binding, mouse; conditions: C-14 labeled, eluted with 0-100% MeOH
Procedure: Ten milliliters of acites containing ractopamine antibody were diluted with 0.1 M acetate buffer (1:3) and centrifuged. The diluted ascites was passed through a protein-G column and non-bound material was washed off with 0.1 M acetate buffer, pH 5.0, followed by 0.1 M glycine, pH 2.8 to elute the IgG. The protein concentration was determined by OD280 and confirmed by the method of Bradford. The IgG purity was confirmed by 10% SDS-PAGE. Purified IgG was conjugated with CNBr-Sepharose according to a standard procedure. Five milligrams of IgG was conjugated with 1 mL of CNBr-Sepharose to produce the immunoaffinity beads. The immunoaffinity beads were packed to a screening column. A solution containing approximately equal amounts of C-14 labeled ractopamine and ractopamine glucuronide was applied to the column. The column was subsequently eluted with 0, 10%, 30%, 50%, 70% and 100% MeOH; eluants were collected and counted for C-14 activity to verify recoveries. […] Thus, the ractopamine IAC retained both ractopamine and ractopamine metabolites, and has the potential to be used for the rapid isolation of ractopamine and (or) ractopamine metabolites from solution. Such a technique would have wide application in the preparation of samples undergoing a ractopamine confirmatory assay.

[3] = Wicker et al. 1995; cited from earlier work
[4] = system: 5G10 monoclonal antibody; experiment: Competitive ELISA in diluted bovine urine (matrix effects); type: binding, mouse
Procedure: as §1
Ractopamine (0, 0.1, 0.5, 1, 5, 10, 50, 100, 500, 1000, 5000, and 10,000 ng/mL) was added to bovine urine samples diluted 1:2, 1:5, 1:10, and 1:20 with PBST. Urine was collected from a Holstein cow that had not received any ractopamine treatment. Immunoassays in diluted matrices were run according to the procedure described in Example 2. The resulting competition data were fit to a four-parameter logistic equation using the program manager provided by the plate reader (Bio-Rad® Laboratories, Hercules, Calif.) and the IC50 values were determined. The IC50 and B0 from each diluted urine curve were compared with IC50 and B0 values generated from the PBST standard curve. Ractopamine in a 1:10 urine dilution at concentrations of 1, 5, 10, 20 ng/mL were divided and stored at -20° C. until used. For determination of intra-assay variation, each concentration of the spiked urine samples was pipetted into 12 wells, along with the appropriate standard curve ([…], 12 levels) and the data processed using the spiked samples as replicated unknowns. Inter-assay variation was determined in a similar manner on five separate days with duplicate wells for each level of spiked sample.

[5] = system: polyclonal antibodies; conditions: polyclonal antibodies generated from rabbits; cited from earlier work
[6] = system: hogs; conditions: dietary, relative to untreated control animals; cited from earlier work
[7] = in words; cited from earlier work
[8] = species dosed with ractopamine HCl; cited from earlier work

| SMILES | IC50 [1] | Cross-reactivity [1] [%] | other results |
| --- | --- | --- | --- |
| COc1ccc(C(O)CNC(C)CCc2ccc(O)cc2)cc1 (stereo not drawn) [LY227273] | 2.6 ng/mL and 2.62 ± 0.08 ng/mL | 103 |  |
| CC(CCc1ccc(O)cc1)NCCc1ccc(O)c(O)c1 (racemic) [Dobutamine] | 50.3 ± 8.1 ng/mL | 5.3 |  |
| C[C@H](CCc1ccc(O)cc1)NCCc1ccc(O)cc1 [R-des-OH-ractopamine] | 1.59 ± 0.09 ng/mL | 169 |  |
| CC(C)(C)NCC(O)c1cc(Cl)c(N)c(Cl)c1 (stereo not drawn) [Clenbuterol] |  | < 0.1 | competition curve [1]: did not produce competition curves; cross reaction with the 5G10 antibody ([1]; in words): did not cross react with the 5G10 antibody |
| C[C@@H](CCc1ccc(O)cc1)NC[C@@H](O)c1ccc(O)cc1 [(1S, 3S) -ractopamine] | 140 ± 23 ng/mL | 1.9 |  |
| CC(CCc1ccc(O)cc1)NCC(O)c1ccc(O)cc1 (racemic) [Ractopamine (racemic), (1R*, 3R*), (1R*, 3S*)-4-hydroxy-β-[[[3-(4-hydroxyphenyl)-1-methylpropyl]amino]methyl]-benzenemethanol hydrochloride] |  | 100 | retention on immunoaffinity column [2]: The radioactivity was mainly in the 50% and 100% MeOH fractions; cross-reaction in immunoassay kits [3]: cross-react poorly with ractopamine; limit of detection ([1]; 80% B/B0 (IC20)): 0.5 ng/mL; IC50 ([1]; hydrochloride): 2.69 ± 0.36 ng/mL; IC50 ([1]; listed as racemic ractopamine, hydrochloride): 2.7 ng/mL; IC50 ([4]; buffer (PBST)): 2.49 ng/mL; IC50 ([4]; urine dilution 1:2): 11.58 ng/mL; IC50 ([4]; urine dilution 1:5): 4.62 ng/mL; IC50 ([4]; urine dilution 1:10): 3.16 ng/mL; IC50 ([4]; urine dilution 1:20): 3.02 ng/mL; IC50 [5]: 4.2 ng/mL; growth and carcass effects [6]: increased growth rates, feed efficiencies, and greater yields of boneless, closely trimmed retail cuts |
| CCCCNCC(O)c1ccc(O)cc1 (stereo not drawn) [Bamethane] | 831 ± 11 ng/mL | 0.3 |  |
| CC(Cc1ccc(O)cc1)NCC(O)c1cc(O)cc(O)c1 (stereo not drawn) [Fenoterol] | 2682 ± 350 ng/mL | 0.1 |  |
| CC(C)(C)NCC(O)c1ccc(O)c(CO)c1 (stereo not drawn) [Salbutamol] |  | < 0.1 | competition curve [1]: did not produce competition curves |
| CC(CCc1ccc(O[C@@H]2O[C@H](C(=O)O)[C@@H](O)[C@H](O)[C@H]2O)cc1)NCC(O)c1ccc(O)cc1 (single isomer, unassigned) [Ractopamine glucuronide B] | 87.8 ± 5.0 ng/mL | 3.1 | poorer ligand relative to (1R,3R) stereoisomer of ractopamine [1]: over 100 times |
| CC(CCc1ccc(O[C@@H]2O[C@H](C(=O)O)[C@@H](O)[C@H](O)[C@H]2O)cc1)NCC(O)c1ccc(O)cc1 (single isomer, unassigned) [Ractopamine glucuronide A] | 263 ± 20 ng/mL | 1 | poorer ligand relative to (1R,3R) stereoisomer of ractopamine [1]: over 100 times |
| CC(NCCc1ccc(O)cc1)C(O)c1ccc(O)cc1 (stereo not drawn) [Ritodrine] | 73.8 ± 4.4 ng/mL | 3.6 |  |
| C[C@H](CCc1ccc(O)cc1)NC[C@H](O)c1ccc(O)cc1 [(1R, 3R) -ractopamine] | 0.55 ± 0.09 ng/mL | 489 | detection limit ([1]; in PBST): 0.1 ng/mL; biological activity [7]: confers biological activity to the molecule |
| CC(CCc1ccc(O)cc1)NCC(O)c1ccc(O[C@@H]2O[C@H](C(=O)O)[C@@H](O)[C@H](O)[C@H]2O)cc1 (stereo partly drawn) [Ractopamine glucuronide C] | 0.70 ± 0.04 ng/mL | 384 | affinity relative to (1R,3R) ractopamine ([1]; in words): bound to the antibody with an affinity almost as great as (1R,3R) ractopamine; identification as metabolite [8]: has been identified in various species dosed experimentally with ractopamine HCl |
| C[C@@H](CCc1ccc(O)cc1)NC[C@H](O)c1ccc(O)cc1 [(1R, 3S) -ractopamine] | 291 ± 32 ng/mL | 0.9 | decrease of antibody binding (factor) ([1]; α-methyl group in (S) configuration): 100 |
| C[C@@H](CCc1ccc(O)cc1)NCCc1ccc(O)cc1 [S-des-OH-ractopamine] | 25.2 ± 1.9 ng/mL | 10.7 |  |
| OCc1cc(C(O)CNCCCCCCOCCCCc2ccccc2)ccc1O (stereo not drawn) [Salmeterol] | 1519 ± 116 ng/mL | 0.2 |  |
| CC(COc1ccccc1)NC(C)C(O)c1ccc(O)cc1 (stereo not drawn) [Isoxsuprine] | 1391 ± 127 ng/mL | 0.2 |  |
| C[C@H](CCc1ccc(O)cc1)NC[C@@H](O)c1ccc(O)cc1 [(1S, 3R) -ractopamine] | 2.00 ± 0.37 ng/mL | 134 |  |
